pIC50: −log10 of the molar value. Where only a bound is given, the exact number is not on record here.

The first assay has as its system Hamster. Description: Lipid lowering effect in hamster assessed as reduction in total cholesterol level in serum at 100 mg/kg, po bid administered at 9 a.m and 4 p.m for 14 days relative to control. The class given is functional, Cricetinae. The note with it: time 14 day. Details: scale not given: the % may be the effect or the level left.
Turning to `COc1cccc([C@H]2O[C@H](CC(=O)N3CCC(CC(=O)O)CC3)C(=O)N(CC(C)(C)CO)c3ccc(Cl)cc32)c1OC`, the Activity was 2%.

For a further assay, the target named is T1, Squalene synthase (Rattus norvegicus, UniProt Q02769).
T1 sequence (Q02769 whole entry): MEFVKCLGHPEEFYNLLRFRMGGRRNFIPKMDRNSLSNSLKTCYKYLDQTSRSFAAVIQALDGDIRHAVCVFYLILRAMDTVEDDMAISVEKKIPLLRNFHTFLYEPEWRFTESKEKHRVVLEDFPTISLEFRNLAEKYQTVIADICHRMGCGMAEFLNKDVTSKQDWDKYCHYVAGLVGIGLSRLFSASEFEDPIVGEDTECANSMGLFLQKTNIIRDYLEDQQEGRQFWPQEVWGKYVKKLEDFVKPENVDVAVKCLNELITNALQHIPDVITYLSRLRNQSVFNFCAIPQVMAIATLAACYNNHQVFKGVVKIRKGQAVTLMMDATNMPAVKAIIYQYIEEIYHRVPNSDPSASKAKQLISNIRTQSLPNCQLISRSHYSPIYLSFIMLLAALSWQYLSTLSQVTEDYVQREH
Description: Inhibition of squalene synthase in rat liver microsomes using [3H] farnesyl pyrophosphate as substrate preincubated for 10 mins followed by substrate addition and measured after 30 mins by liquid scintillation counter analysis. More on the design: species or system Microsome.
Conditions: not given
In the case of `COc1ccccc1C1OCCCN(S(=O)(=O)c2ccccc2[N+](=O)[O-])CC(=O)N(CC(C)(C)C)c2ccc(Cl)cc21` (centres undefined), the pIC50 is < 6.22.
`COc1ccccc1C1OCCN([C@@H]2CCC[C@H](C(=O)O)C2)C(=O)CC(=O)N(CC(C)(C)C)c2ccc(Cl)cc21` (some centres undefined): the pIC50 was 8.33.
Still for that read-out and setting: under `CCOC(=O)C1CCN(C(=O)N2CCCOC(c3ccccc3OC)c3cc(Cl)ccc3N(CC(C)(C)C)C(=O)C2)CC1` (centres undefined) stands 7.33; under `CCOC(=O)C(=O)N1CCCC(N2CCOC(c3ccccc3OC)c3cc(Cl)ccc3N(CC(C)(C)C)C(=O)CC2=O)C1` (centres undefined), 7.85; under `COc1ccccc1C1OCCCN(C(=O)C(=O)O)CC(=O)N(CC(C)(C)C)c2ccc(Cl)cc21` (centres undefined), ≤ 6.59.
As for `COc1ccccc1C1OCCN(C2CCC(C(=O)O)CC2)C(=O)CC(=O)N(CC(C)(C)C)c2ccc(Cl)cc21` (centres undefined), the pIC50 was 7.34.
On to `COc1ccccc1C1OCCCN(C(=O)N2CCC(C(=O)O)CC2)CC(=O)N(CC(C)(C)C)c2ccc(Cl)cc21` (centres undefined), for which the pIC50 is 7.92.
On the same count and under the same terms, under `CCOC(=O)C1CCCN(C(=O)N2CCCOC(c3ccccc3OC)c3cc(Cl)ccc3N(CC(C)(C)C)C(=O)C2)C1` (centres undefined) stands < 6.22; under `COc1ccccc1C1OCCN(C(=O)C(F)(F)F)CCC(=O)N(CC(C)(C)C)c2ccc(Cl)cc21` (centres undefined), < 6.22.
Regarding `CCOC(=O)CC1CCN(C(=O)N2CCCOC(c3ccccc3OC)c3cc(Cl)ccc3N(CC(C)(C)C)C(=O)C2)CC1` (centres undefined), the pIC50 was 7.70.
Turning to `COc1ccccc1C1OCCN(CC(=O)N2CCCC(C(=O)O)C2)C(=O)CC(=O)N(CC(C)(C)C)c2ccc(Cl)cc21` (centres undefined), the negative-log IC50 (pIC50) was < 6.22.
Consider `CCOC(=O)CN1CCC(=O)N(CC(C)(C)C)c2ccc(Cl)cc2C(c2ccccc2OC)OCC1=O` (centres undefined), for which the pIC50 was < 6.22.
`CCOC(=O)[C@H]1CC[C@@H](N2CCOC(c3ccccc3OC)c3cc(Cl)ccc3N(CC(C)(C)C)C(=O)CC2=O)CC1` (some centres undefined) showed a pIC50 of 7.59.
The compound `CCOC(=O)C1CCC(N2CCOC(c3ccccc3OC)c3cc(Cl)ccc3N(CC(C)(C)C)C(=O)CC2=O)CC1` (centres undefined) had a pIC50 of 7.52.
Consider `CCOC(=O)[C@@H]1CCC[C@@H](N2CCOC(c3ccccc3OC)c3cc(Cl)ccc3N(CC(C)(C)C)C(=O)CC2=O)C1` (some centres undefined), for which the pIC50 is 7.72.
`CCOC(=O)CN1CCOC(c2ccccc2OC)c2cc(Cl)ccc2N(CC(C)(C)C)C(=O)CC1=O` (centres undefined) showed a pIC50 of 6.85.
For `CCOC(=O)CN1CC(=O)N(CC(C)(C)C)c2ccc(Cl)cc2C(c2ccccc2OC)OCCC1=O` (centres undefined), the pIC50 was < 6.22.
On to `COc1ccccc1C1OCCCNCC(=O)N(CC(C)(C)C)c2ccc(Cl)cc21` (centres undefined), for which the pIC50 was < 6.22.
Still for that read-out and setting: for `COc1ccccc1C1OCCN(CC(=O)N2CCC(C(=O)O)CC2)C(=O)CC(=O)N(CC(C)(C)C)c2ccc(Cl)cc21` (centres undefined) the value was < 6.22; for `COc1ccccc1C1OCCCN(C(=O)N2CCCC(C(=O)O)C2)CC(=O)N(CC(C)(C)C)c2ccc(Cl)cc21` (centres undefined), 6.77.
In the case of `COc1ccccc1C1OCCC(=O)N(CC(=O)N2CCC(C(=O)O)CC2)CC(=O)N(CC(C)(C)C)c2ccc(Cl)cc21` (centres undefined), the pIC50 was < 6.22.
On to `CCOC(=O)C1CCN(C(=O)CN2CC(=O)N(CC(C)(C)C)c3ccc(Cl)cc3C(c3ccccc3OC)OCCC2=O)CC1` (centres undefined), for which the pIC50 is < 6.22.
Same read-out and setting: for `COc1ccccc1C1OCCN(C2CCN(C(=O)C(=O)O)CC2)C(=O)CC(=O)N(CC(C)(C)C)c2ccc(Cl)cc21` (centres undefined) the value was < 6.22; for `COc1ccccc1C1OCCNCCC(=O)N(CC(C)(C)C)c2ccc(Cl)cc21` (centres undefined), < 6.22.
For the compound `CCOC(=O)C(=O)N1CCC(N2CCOC(c3ccccc3OC)c3cc(Cl)ccc3N(CC(C)(C)C)C(=O)CC2=O)CC1` (centres undefined), the pIC50 was 7.60.
Regarding `COc1ccccc1C1OCCN(C(=O)C(=O)O)CCC(=O)N(CC(C)(C)C)c2ccc(Cl)cc21` (centres undefined), the pIC50 is < 6.22.
Still for that read-out and setting: under `CCOC(=O)C(=O)N1CCCOC(c2ccccc2OC)c2cc(Cl)ccc2N(CC(C)(C)C)C(=O)C1` (centres undefined) stands < 6.22.
In the case of `COc1ccccc1C1OCC(=O)N(CC(=O)O)CCC(=O)N(CC(C)(C)C)c2ccc(Cl)cc21` (centres undefined), the pIC50 was < 6.22.
The same measure, in the same setting: under `CCOC(=O)[C@H]1CCC[C@H](N2CCOC(c3ccccc3OC)c3cc(Cl)ccc3N(CC(C)(C)C)C(=O)CC2=O)C1` (some centres undefined) stands 7.27; under `CCOC(=O)[C@H]1CC[C@H](N2CCOC(c3ccccc3OC)c3cc(Cl)ccc3N(CC(C)(C)C)C(=O)CC2=O)CC1` (some centres undefined), 7.80; under `COc1ccccc1C1OCCN([C@@H]2CCC[C@@H](C(=O)O)C2)C(=O)CC(=O)N(CC(C)(C)C)c2ccc(Cl)cc21` (some centres undefined), 8.40.
For the compound `COc1ccccc1[C@@H](O)c1cc(Cl)ccc1N(CC(C)(C)C)C(=O)CCC(=O)N1CCC[C@H](C(=O)O)C1`, the pIC50 is 9.22.
For the compound `COc1ccccc1C1OCCC(=O)N(CC(=O)N2CCCC(C(=O)O)C2)CC(=O)N(CC(C)(C)C)c2ccc(Cl)cc21` (centres undefined), the pIC50 is < 6.22.
Same read-out and setting: for `COc1ccccc1C1OCCN(CC(=O)O)C(=O)CC(=O)N(CC(C)(C)C)c2ccc(Cl)cc21` (centres undefined) the value was < 6.22; for `COc1ccccc1C1OCCN([C@H]2CCC[C@H](C(=O)O)C2)C(=O)CC(=O)N(CC(C)(C)C)c2ccc(Cl)cc21` (some centres undefined), < 6.22.
`COc1ccccc1C1OCCCN(C(=O)N2CCC(CC(=O)O)CC2)CC(=O)N(CC(C)(C)C)c2ccc(Cl)cc21` (centres undefined) had a pIC50 of 8.15.
The compound `CCOC(=O)C1CCN(C(=O)CN2CCOC(c3ccccc3OC)c3cc(Cl)ccc3N(CC(C)(C)C)C(=O)CC2=O)CC1` (centres undefined) had a pIC50 of 6.41.
Take `CCOC(=O)C(=O)N1CCOC(c2ccccc2OC)c2cc(Cl)ccc2N(CC(C)(C)C)C(=O)CC1` (centres undefined): the pIC50 was < 6.22.
Consider `COc1ccccc1C1OCC(=O)NCCC(=O)N(CC(C)(C)C)c2ccc(Cl)cc21` (centres undefined), for which the pIC50 is < 6.22.
Compound `CCOC(=O)[C@H]1CCC[C@@H](N2CCOC(c3ccccc3OC)c3cc(Cl)ccc3N(CC(C)(C)C)C(=O)CC2=O)C1` (some centres undefined) gave a pIC50 of 7.74.
On to `CCOC(=O)[C@@H]1CCC[C@H](N2CCOC(c3ccccc3OC)c3cc(Cl)ccc3N(CC(C)(C)C)C(=O)CC2=O)C1` (some centres undefined), for which the pIC50 is 7.77.
Compound `COc1ccccc1[C@H]1OCCCN(C(=O)N2CCC(CC(=O)O)CC2)CC(=O)N(CC(C)(C)C)c2ccc(Cl)cc21` gave a pIC50 of 8.36.
The same measure, in the same setting: for `COc1ccccc1C1OCCN(C2CCCN(C(=O)C(=O)O)C2)C(=O)CC(=O)N(CC(C)(C)C)c2ccc(Cl)cc21` (centres undefined) the value was 7.68.
On to `COc1ccccc1C1OCCC(=O)N(CC(=O)O)CC(=O)N(CC(C)(C)C)c2ccc(Cl)cc21` (centres undefined), for which the pIC50 is < 6.22.
On the same count and under the same terms, under `CCOC(=O)C1CCCN(C(=O)CN2CC(=O)N(CC(C)(C)C)c3ccc(Cl)cc3C(c3ccccc3OC)OCCC2=O)C1` (centres undefined) stands < 6.22.
As for `COc1ccccc1[C@@H]1OCCCN(C(=O)N2CCC(CC(=O)O)CC2)CC(=O)N(CC(C)(C)C)c2ccc(Cl)cc21`, the pIC50 was 5.85.
Regarding `COc1ccccc1C1OCCN([C@H]2CC[C@@H](C(=O)O)CC2)C(=O)CC(=O)N(CC(C)(C)C)c2ccc(Cl)cc21` (some centres undefined), the pIC50 was 6.35.
On the same count and under the same terms, under `CCOC(=O)C1CCCN(C(=O)CN2CCOC(c3ccccc3OC)c3cc(Cl)ccc3N(CC(C)(C)C)C(=O)CC2=O)C1` (centres undefined) stands 7.19; under `COc1ccccc1C1OCCN([C@H]2CCC[C@@H](C(=O)O)C2)C(=O)CC(=O)N(CC(C)(C)C)c2ccc(Cl)cc21` (some centres undefined), < 6.22.
Still for that read-out and setting: under `COc1ccccc1C1OCCN([C@H]2CC[C@H](C(=O)O)CC2)C(=O)CC(=O)N(CC(C)(C)C)c2ccc(Cl)cc21` (some centres undefined) stands 7.64.

Another assay relates to Hepatocyte. Description: Inhibition of cholesterol biosynthesis in rat hepatocytes preincubated for 1 hr followed by [14C]mevalonolactone addition and measured after 1 hr by liquid scintillation counter analysis. The class given is functional, cell-based.
Conditions: not given
On to `COc1ccccc1[C@@H](O)c1cc(Cl)ccc1N(CC(C)(C)C)C(=O)CCC(=O)N1CCC[C@H](C(=O)O)C1`, for which the pIC50 was 6.92.
`COc1ccccc1[C@H]1OCCCN(C(=O)N2CCC(CC(=O)O)CC2)CC(=O)N(CC(C)(C)C)c2ccc(Cl)cc21` showed a pIC50 of 6.92.
As for `COc1ccccc1[C@@H]1OCCCN(C(=O)N2CCC(CC(=O)O)CC2)CC(=O)N(CC(C)(C)C)c2ccc(Cl)cc21`, the pIC50 was < 5.52.

System in another assay: not listed separately
As to the kind of experiment: Effect on triglyceride level in hamster assessed as increase in triglyceride level in serum at 100 mg/kg, po bid administered at 9 a.m and 4 p.m for 14 days relative to control. The class given is functional, Cricetinae. The note with it: time 14 day.
`COc1cccc([C@H]2O[C@H](CC(=O)N3CCC(CC(=O)O)CC3)C(=O)N(CC(C)(C)CO)c3ccc(Cl)cc32)c1OC`: the Activity was 8%.

A further assay relates to marmosets. As to the kind of experiment: Lipid lowering effect in chow diet fed marmosets assessed as reduction in total cholesterol level in serum at 10 mg/kg, po qd administered once a day to 9 to 10 a.m for 7 days relative to control. The class given is functional, Callitrichinae sp. More on the design: scale not given: the % may be the effect or the level left. The note with it: time 7 day.
For `COc1cccc([C@H]2O[C@H](CC(=O)N3CCC(CC(=O)O)CC3)C(=O)N(CC(C)(C)CO)c3ccc(Cl)cc32)c1OC`, the Activity stood at 24%.

A further assay concerns marmosets. As to the kind of experiment: Lipid lowering effect in chow diet fed marmosets assessed as reduction in non-HDL level in serum at 10 mg/kg, po qd administered once a day to 9 to 10 a.m for 7 days relative to control. The class given is functional, Callitrichinae sp. Details: scale not given: the % may be the effect or the level left. Particulars: time 7 day.
In the case of `COc1cccc([C@H]2O[C@H](CC(=O)N3CCC(CC(=O)O)CC3)C(=O)N(CC(C)(C)CO)c3ccc(Cl)cc32)c1OC`, the Activity worked out at 34%.

The test system of another assay is marmosets. As to the kind of experiment: Lipid lowering effect in chow diet fed marmosets assessed as reduction in HDL level in serum at 10 mg/kg, po qd administered once a day to 9 to 10 a.m for 7 days relative to control. Format: functional, Callitrichinae sp. Details: scale not given: the % may be the effect or the level left. The note with it: time 7 day.
Turning to `COc1cccc([C@H]2O[C@H](CC(=O)N3CCC(CC(=O)O)CC3)C(=O)N(CC(C)(C)CO)c3ccc(Cl)cc32)c1OC`, the Activity was 3%.

A further assay concerns marmosets. As to the kind of experiment: Lipid lowering effect in chow diet fed marmosets assessed as reduction in triglyceride level in serum at 10 mg/kg, po qd administered once a day to 9 to 10 a.m for 7 days relative to control. The class given is functional, Callitrichinae sp. Details: scale not given: the % may be the effect or the level left. Particulars: time 7 day.
Regarding `COc1cccc([C@H]2O[C@H](CC(=O)N3CCC(CC(=O)O)CC3)C(=O)N(CC(C)(C)CO)c3ccc(Cl)cc32)c1OC`, the Activity turned out to be 38%.

(Values after ChEMBL document CHEMBL5543119, “Discovery of Novel 11-Membered Templates as Squalene Synthase Inhibitors” (J Med Chem, 2024).)
